The values that follow are results of earlier work, collected in US20210128727A1, “A pharmaceutical combination for use in the treatment of cancer” (Universitätsmedizin der Johannes Gutenberg-Universität Mainz, priority 2018, published 2021).

For this series, the target named is T1, TLR-9 (Mus musculus, UniProt Q9EQU3).
T1 construct: host or cells: mice (in vivo, endogenous protein)
T1 sequence (Q9EQU3 26-1032): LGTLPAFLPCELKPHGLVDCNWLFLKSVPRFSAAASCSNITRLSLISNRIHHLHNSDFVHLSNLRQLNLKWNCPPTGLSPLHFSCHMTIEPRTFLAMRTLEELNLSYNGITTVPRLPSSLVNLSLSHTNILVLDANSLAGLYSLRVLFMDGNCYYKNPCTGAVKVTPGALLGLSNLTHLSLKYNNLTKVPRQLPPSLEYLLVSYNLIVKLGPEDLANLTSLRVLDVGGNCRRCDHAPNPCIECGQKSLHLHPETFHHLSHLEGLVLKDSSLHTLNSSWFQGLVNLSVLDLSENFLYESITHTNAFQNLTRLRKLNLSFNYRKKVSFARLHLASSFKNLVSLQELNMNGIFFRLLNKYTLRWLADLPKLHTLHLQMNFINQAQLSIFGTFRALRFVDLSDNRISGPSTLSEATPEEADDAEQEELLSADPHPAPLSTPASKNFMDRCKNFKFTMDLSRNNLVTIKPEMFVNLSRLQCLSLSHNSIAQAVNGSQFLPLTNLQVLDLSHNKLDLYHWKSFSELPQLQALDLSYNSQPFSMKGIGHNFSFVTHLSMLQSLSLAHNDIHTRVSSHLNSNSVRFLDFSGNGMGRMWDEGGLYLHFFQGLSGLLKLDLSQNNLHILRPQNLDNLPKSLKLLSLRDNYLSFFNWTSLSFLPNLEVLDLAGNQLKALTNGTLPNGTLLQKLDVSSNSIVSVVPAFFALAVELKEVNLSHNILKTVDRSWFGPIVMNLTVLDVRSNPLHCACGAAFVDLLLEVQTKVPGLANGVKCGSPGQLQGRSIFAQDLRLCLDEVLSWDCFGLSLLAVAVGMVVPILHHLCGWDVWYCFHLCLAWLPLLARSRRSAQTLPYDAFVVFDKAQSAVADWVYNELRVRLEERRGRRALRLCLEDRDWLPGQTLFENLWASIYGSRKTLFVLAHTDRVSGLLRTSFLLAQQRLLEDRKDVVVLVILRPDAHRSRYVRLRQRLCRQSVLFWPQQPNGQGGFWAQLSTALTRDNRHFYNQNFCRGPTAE
As to conditions: mice.

For “5′-TCCATGACGTTCCTGATGCT-3′: CpG oligodeoxynucleotide TLR9 agonist produced at Metabion International AG (DNA, all phosphorothioate, methylation of C not given here; listed as Mus musculus)”, the “reversal of regulatory T cell-mediated CD8 tolerance” value is listed as “efficiently reverse regulatory T cell-mediated CD8 tolerance”.
